For 11 molecules, MIC results are on record in patent publication US8039466B2, “5-hydroxymethyl-oxazolidin-2-one antibacterials” (Actelion Pharmaceutical Ltd., priority 2006, dated 2011).

For orientation: MIC means the lowest concentration found to suppress growth.

Values after ≈ are worked out from the molar mass of the structure shown. Like-named read-outs stand apart in the source and are kept apart here.

Test in all cases: MIC by microdilution in cation-adjusted Mueller-Hinton Broth (NCCLS)
Holding throughout (format): cell-based
A general note: Dilution methods test growth across graded concentrations, often in twofold steps.

For assay [1], the system named is M. catarrhalis A894. As to conditions: Moraxella catarrhalis, pH of test medium 7.2-7.3. As for the experimental part:
(§1) These assays have been performed following the description given in “Methods for dilution Antimicrobial Susceptibility Tests for Bacteria that Grow Aerobically, 4th ed.; Approved standard: NCCLS Document M7-A4; National Committee for Clinical Laboratory Standards Villanova, Pa., USA, 1997”. Minimal inhibitory concentrations (MICs; mg/l) were determined in cation-adjusted Mueller-Hinton Broth (BBL) by a microdilution method following NCCLS guidelines (National Committee for Clinical Laboratory Standards. Methods for Dilution Antimicrobial Susceptibility). The pH of the test medium was 7.2-7.3. All the above Examples were tested against several Gram positive and Gram negative bacteria.

Assay [2] relates to S. aureus A798. As to conditions: Staphylococcus aureus. As for the experimental part: as §1
The subject of assay [3] is S. Pneumoniae 49619. As to conditions: Streptococcus pneumoniae. As for the experimental part: as §1
[4] abbreviates: A798, pH of test medium 7.2-7.3, read-out: MIC S. aureus A798.
The mark [5] stands for this setting: pH of test medium 7.2-7.3, read-out: MIC S. Pneumoniae 49619.

For the molecule `O=C(O)c1cn(C2CC2)c2c3c(c(F)cc2c1=O)N1CCC(O)(COc2ccc(N4C[C@H](CO)OC4=O)cc2F)C[C@H]1CO3` (mixture of isomers) [Example 6, (6aS,8RS)-4-cyclopropyl-11-fluoro-8-[2-fluoro-4-((R)-5-hydroxymethyl-2-oxo-oxazolidin-3-yl)-phenoxymethyl]-8-hydroxy-1-oxo-1,4,6,6a,7,8,9,10-octahydro-5-oxa-4,10a-diaza-chrysene-2-carboxylic acid], the MIC in assay [1] turned out to be 0.5 µg/mL; in assay [2] (setting [4]), 0.5 µg/mL; in assay [3] (setting [5]), 0.25 µg/mL.

Take `O=C(O)c1cn(C2CC2)c2c3c(c(F)cc2c1=O)N1CCC(O)(COc2ccc(N4C[C@H](CO)OC4=O)cc2F)C[C@@H]1CO3` (mixture of isomers) [Example 7, (6aR,8RS)-4-cyclopropyl-11-fluoro-8-[2-fluoro-4-((R)-5-hydroxymethyl-2-oxo-oxazolidin-3-yl)-phenoxymethyl]-8-hydroxy-1-oxo-1,4,6,6a,7,8,9,10-octahydro-5-oxa-4,10a-diaza-chrysene-2-carboxylic acid]: the MIC in assay [3] (setting [5]) is 0.25 µg/mL. Same read-out and setting: the result for `O=C(O)c1cn(C2CC2)c2c3c(c(F)cc2c1=O)N1C[C@](O)(COc2ccc(N4C[C@H](CO)OC4=O)cc2F)C[C@H]1CO3` [Example 1, (13S,16S)-1-cyclopropyl-7-fluoro-16-[2-fluoro-4-((R)-5-hydroxymethyl-2-oxo-oxazolidin-3-yl)-phenoxymethyl]-16-hydroxy-4-oxo-1,4,13,15,16,17-hexahydro-12H-11-oxa-1,14-diaza-cyclopenta[a]phenanthrene-3-carboxylic acid] reads at most 0.063 µg/mL; that for `C[C@@H](N)C(=O)OC[C@H]1CN(c2ccc(OC[C@]3(O)C[C@H]4COc5c(c(F)cc6c(=O)c(C(=O)O)cn(C7CC7)c56)N4C3)c(F)c2)C(=O)O1` [Example 2, (13S,16S)-16-{4-[(R)-5-((R)-2-amino-propionyloxymethyl)-2-oxo-oxazolidin-3-yl]-2-fluoro-phenoxymethyl}-1-cyclopropyl-7-fluoro-16-hydroxy-4-oxo-1,4,13,15,16,17-hexahydro-12H-11-oxa-1,14-diaza-cyclopenta[a]phenanthrene-3-carboxylic acid], 0.125 µg/mL (≈ 0.186 µM). Take `CCn1cc(C(=O)O)c(=O)c2cc(F)c3c(c21)OC[C@@H]1C[C@@](O)(COc2ccc(N4C[C@H](CO)OC4=O)cc2F)CN31` [Example 3, (13S,16S)-1-ethyl-7-fluoro-16-[2-fluoro-4-((R)-5-hydroxymethyl-2-oxo-oxazolidin-3-yl)-phenoxymethyl]-16-hydroxy-4-oxo-1,4,13,15,16,17-hexahydro-12H-11-oxa-1,14-diaza-cyclopenta[a]phenanthrene-3-carboxylic acid]: the minimal inhibitory concentration (MIC) in assay [1] was 0.125 µg/mL (≈ 0.213 µM); in assay [2] (setting [4]) it was 0.5 µg/mL (≈ 0.851 µM); in assay [3] (setting [5]), 0.25 µg/mL (≈ 0.426 µM). As for `O=C(O)c1cn(C2CC2)c2c3c(c(F)cc2c1=O)N1C[C@H](COc2ccc(N4C[C@H](CO)OC4=O)cc2F)C[C@H]1CO3` [Example 4, (13S,16R)-1-cyclopropyl-7-fluoro-16-[2-fluoro-4-((R)-5-hydroxymethyl-2-oxo-oxazolidin-3-yl)-phenoxymethyl]-4-oxo-1,4,13,15,16,17-hexahydro-12H-11-oxa-1,14-diaza-cyclopenta[a]phenanthrene-3-carboxylic acid], in assay [3] (setting [5]), the MIC came out at 0.25 µg/mL (≈ 0.428 µM). With `O=C(O)c1cn(C2CC2)c2c3c(c(F)cc2c1=O)N1C[C@@H](COc2ccc(N4C[C@H](CO)OC4=O)cc2F)C[C@H]1CO3` [Example 5, (13S,16S)-1-cyclopropyl-7-fluoro-16-[2-fluoro-4-((R)-5-hydroxymethyl-2-oxo-oxazolidin-3-yl)-phenoxymethyl]-4-oxo-1,4,13,15,16,17-hexahydro-12H-11-oxa-1,14-diaza-cyclopenta[a]phenanthrene-3-carboxylic acid], the MIC in assay [3] (setting [5]) stood at 0.25 µg/mL (≈ 0.428 µM). As for `O=C(O)c1cn(C2CC2)c2c3c(c(F)cc2c1=O)N1C[C@@](COc2ccc(N4C[C@H](CO)OC4=O)cc2F)(OP(=O)(O)O)C[C@H]1CO3` [Example 8, (13S,16S)-1-cyclopropyl-7-fluoro-16-[2-fluoro-4-((R)-5-hydroxymethyl-2-oxo-oxazolidin-3-yl)-phenoxymethyl]-4-oxo-16-phosphonooxy-1,4,13,15,16,17-hexahydro-12H-11-oxa-1,14-diaza-cyclopenta[a]phenanthrene-3-carboxylic acid], the minimal inhibitory concentration (MIC) in assay [2] (A798, in the presence of human alkaline phosphatase, read-out: MIC against S. aureus A798) is 0.25 µg/mL; in assay [2] (A798, phosphatase absent, read-out: MIC against S. aureus A798), 4 µg/mL (≈ 5.89 µM). For the molecule `O=C(O)c1c[nH]c2c3c(c(F)cc2c1=O)N1C[C@](O)(COc2ccc(N4C[C@H](CO)OC4=O)cc2F)C[C@H]1CO3` [Example 9, (13S,16S)-7-fluoro-16-[2-fluoro-4-((R)-5-hydroxymethyl-2-oxo-oxazolidin-3-yl)-phenoxymethyl]-16-hydroxy-4-oxo-1,4,13,15,16,17-hexahydro-12H-11-oxa-1,14-diaza-cyclopenta[a]phenanthrene-3-carboxylic acid], in assay [3] (setting [5]), the minimum inhibitory concentration (MIC) is 0.25 µg/mL (≈ 0.447 µM). On to `C[C@H](N)C(=O)OC[C@H]1CN(c2ccc(OC[C@]3(O)C[C@H]4COc5c(c(F)cc6c(=O)c(C(=O)O)cn(C7CC7)c56)N4C3)c(F)c2)C(=O)O1.Cl` [Example 11, (13S,16S)-16-{4-[(R)-5-((S)-2-amino-propionyloxymethyl)-2-oxo-oxazolidin-3-yl]-2-fluoro-phenoxymethyl}-1-cyclopropyl-7-fluoro-16-hydroxy-4-oxo-1,4,13,15,16,17-hexahydro-12H-11-oxa-1,14-diaza-cyclopenta[a]phenanthrene-3-carboxylic acid hydrochloride], for which the minimum inhibitory concentration (MIC) in assay [3] (in the absence of human serum, read-out: MIC against S. Pneumoniae 49619) is at most 0.063 µg/mL. `O=C(O)c1cn(C2CC2)c2c3c(c(F)cc2c1=O)N1C[C@](O)(COc2ccc(N4C[C@H](COC(=O)C5CCNCC5)OC4=O)cc2F)C[C@H]1CO3` [Example 12, (13S,16S)-1-cyclopropyl-7-fluoro-16-{2-fluoro-4-[(R)-2-oxo-5-(piperidine-4-carbonyloxymethyl)-oxazolidin-3-yl]-phenoxymethyl}-16-hydroxy-4-oxo-1,4,13,15,16,17-hexahydro-12H-11-oxa-1,14-diaza-cyclopenta[a]phenanthrene-3-carboxylic acid]: the MIC in assay [2] (A798, human serum absent, read-out: MIC against S. aureus A798) turned out to be 8 µg/mL (≈ 11.3 µM); in assay [2] (A798, in the presence of human serum, read-out: MIC against S. aureus A798), 2 µg/mL.
